Results from patent US9737523B2, “Anti-fibrogenic compounds, methods and uses thereof” (priority 2013, dated 2017).

How the values were obtained:
[1] = system: mouse splenocytes; test: Immune factor protein microarray of conditioned media of ConA-activated splenocytes; assay type: cell-based; settings: 100 μg/mL, 48 hrs
[2] = system: UMSCC; test: MMP-1 expression in squamous cell carcinoma cell line UMSCC, Western blot; assay type: cell-based, human; settings: 12.5 to 150 μg/ml, 48 hours
Procedure: The squamous cell carcinoma (UMSCC) cell line derived from patients with head and neck cancer (ATCC™, Manassas, Va.) were maintained in RPMI-1640 medium with 10% FBS. The Human keratinocyte cell line HACAT (ATCC) and the carcinomic human alveolar basal epithelial cell line A549 (ATCC™) were cultured in DMEM with 10% FBS. The diploid lung fibroblasts IMR-90 (ATCC™) were maintained in Minimum Essential Medium (MEM, Invitrogen™) with 10% FBS.
Similarly, other cells such as synoviocytes, IMR-90, keratinocytes, UMSCC and A549 were treated with kynurenine at concentrations of 12.5 to 150 μg/ml in appropriate media for each cell type as described above for 48 hours. Cells were then harvested for western blot analysis.
Cells were harvested by Trypsin/EDTA and lysed with cell lysis buffer containing 50 mM Tris-HCl (pH7.40), 150 mM NaCl, 10 mM EDTA, 5 mM EGTA, 1% TritonX-100™, 0.5% Igepal CA-630, 0.025% NaN3 and protease inhibitor cocktail (Sigma™). Cell debris was removed by centrifugation at 20,000×g for 10 minutes. The protein concentration in supernatant was determined using the MicroBCA™ method (Pierce™, Rockford, Ill.). Proteins in supernatant were mixed with protein sample loading buffer (final concentration: 60 mM Tris-HCl (pH 6.80), 2% SDS, 10% glycerol, 1.5% β-mercaptoethanol, 0.002% bromophenol blue) and size fractioned by 10% of SDS-polyacrylamide gel. […]

[3] = system: MMP-1; test: MMP-1 expression in human dermal fibroblasts, Western blot; assay type: cell-based; settings: for MMP-1 expression: 48 hours
Procedure: Cells were then harvested after 48 hours and western blot analysis was performed.
Cells were then harvested by trypsinization and western blot analysis was performed.
Cells were harvested by Trypsin/EDTA and lysed with cell lysis buffer containing 50 mM Tris-HCl (pH7.40), 150 mM NaCl, 10 mM EDTA, 5 mM EGTA, 1% TritonX-100™, 0.5% Igepal CA-630, 0.025% NaN3 and protease inhibitor cocktail (Sigma™). Cell debris was removed by centrifugation at 20,000×g for 10 minutes. The protein concentration in supernatant was determined using the MicroBCA™ method (Pierce™, Rockford, Ill.). Proteins in supernatant were mixed with protein sample loading buffer (final concentration: 60 mM Tris-HCl (pH 6.80), 2% SDS, 10% glycerol, 1.5% β-mercaptoethanol, 0.002% bromophenol blue) and size fractioned by 10% of SDS-polyacrylamide gel. After proteins were transferred onto nitrocellulose membrane by iBlot™ (Invitrogen Life Technologies™), non-specific binding were blocked with phosphate buffer saline twenty 20 (PBS-T) containing 5% skim milk for 1 hour. The membrane was then incubated with primary antibody overnight. After incubation with a secondary antibody for 1 hour, protein bands were visualized by an enhanced chemiluminescence (ECL™) detection system (Santa Cruz Biotechnology™, Santa Cruz, Calif.). The primary antibodies used in this study were: mouse monoclonal anti-human MMP-1 (R&D Systems™, Minneapolis, Minn.), mouse monoclonal anti-human MMP-3 (R&D System™), rabbit monoclonal anti-human MMP-2 (Epitomics™, Burlingame, Calif.), rabbit polyclonal anti-phospho-MEK1/2 (Ser217/221™) (Cell Signaling Technology™, Danvers, Mass.), rabbit polyclonal anti-phospho-p44/42 MAPK (Thr202/Tyr204) (Cell Signaling Technology™), monoclonal anti-β-actin (Sigma™), and mouse anti-type-1 procollagen (Developmental Studies Hybridoma Bank™, Iowa City, Iowa). The secondary antibodies were either goat anti-mouse IgG (H+L) HPR conjugate or goat anti-rabbit IgG (H+L) HPR conjugate (Bio-rad Laboratory™ (Mississauga, ON, Canada). Secondary antibodies were used at a concentration of 1:3000.

[4] = system: rabbit ear wounds; test: Rabbit ear hypertrophic scar model, topical application; assay type: in vivo
Procedure: Female rabbits (New Zealand white) weighing 4.5-5 kg were used for this study. The protocol was reviewed and approved by the University of British Columbia animal care committees. The rabbit ear model of hypertrophic scar was created as described previously (Rahmani-Neishaboor, et al., 2010). Briefly, 2 rabbits were anesthetized by intramuscular injection of ketamine (22.5 mg/kg) and xylazine (2.5 mg/kg) followed by isoflurane gas through tracheal intubation. Four wounds were created down to bare cartilage on the ventral side of each ear using an 8-mm dermal biopsy punch to remove full-thickness sections of skin. Antibiotics were applied on wounds daily until kynurenine treatment was started.
Kynureine in CMC gel (Rahmani-Neishaboor et al., 2010) with a concentration of 500 μg/ml was applied topically to the wounds of the experimental group (0.1 ml per wound) daily for 3 weeks starting at 1 week post wounding. The wounds of the control group were received the treatment with an equal amount of cream alone daily.
Animals were sacrificed on weeks 3 after treatments. Scars (10 mm punch biopsies) were harvested. Each scar was sectioned in two along its longitudinal axis and half of which was processed for routine histological analysis and another half was kept at −80° C. for future use.
Scar elevation was quantified by measuring Scar Elevation Index (SEI) from the H & E stained tissue section. The SEI is a ratio of total height in the wound tissue to the normal tissue below the hypertrophic scar.
According to a method previously reported (Gawronskao-Kozak B. et al. 2006), half of 8 mm diameter skin punches were weighed and frozen in −80° C. Skins were homogenized in 2 ml of PBS and stored at 4° C. overnight. The next day, 1 ml of 6N HCl was added and the mixture was heated at 120° C. for 5 hours. 20 μl of cooled samples and 50 μl of chloramine T solution were added to the 96-well plate and incubated at room temperature for 20 minutes. 50 μl of Erlich solution was then added and the mixture was incubated at 65° C. for 15 minutes. Absorbance was read at 570 nm. Hydroxyproline concentration was calculated by a standard curve.
RNA was extracted by Trizol™ (Invitrogen Life Technologies™). Briefly, 1 ml of Trizol™ was added to the homogenized skin tissue. 250 μl of chloroform was added after the mixture was standed at room temperature for 5 minutes. Top aqueous phase was transferred into a new eppendorf tube after centrifugation for 10 minute at 20,000×g. Equal volume isopropanol was added to the aqueous phase and mixed gently. The pellet was washed with 1 ml of 75% ethanol after centrifugation for 20 minutes. RNA was dissolved in DEPC treated H2O and its concentration was measured by Nanodrop2000™. cDNA was synthesized by cDNA synthesis kit from Roche according to manufacture's introduction using 1 μg of total RNA in each sample. Quantitative real-time PCR for rabbit type-1 α1 collagen, MMP-1 and housekeeper gene β-actin were performed in ViiA7 (Invitrogen™). cDNA samples were added to a PCR reaction master mix containing STBR Green Master Mix™ (Rox) (Roche™, Indianapolis, Ind.). All reactions were performed in duplicate using the following cycle conditions: 1 cycle of 95° C. for 10 minutes, 40 cycles of 95° C. for 15 seconds and 60° C. for 1 minute. The expression level of type-1 α1 collagen and MMP-1 in each sample was normalised to β-actin. RT-PCR primers: rabbit type-1 α1 collagen: 5′-[…]-3′ (Forward), 5′-[…]-3′ (Reverse); MMP-1,5′-[…]-3′ (Forward), 5′-[…]-3′ (Reverse); β-actin, 5′-[…]-3′ (Forward), 5′-[…]-3′(Reverse).

[5] = 50 μg in 0.1 ml CMC gel daily for three weeks
[6] = topical, versus no treatment or gel alone

Nc1ccccc1C(=O)CC(N)C(=O)O (racemic) [kynurenine]
IL-17 production [1]: significantly decrease
proinflammatory cytokine and chemokine production (IL-1, IL-2, CXCL9, CXCL10) [1]: immune suppressive effect
MMP-1 expression versus untreated controls [2]: did not significantly differ
MMP1 protein expression 48 hours after treatment removal ([3]; 100 μg/ml for 48 hours, then 48 hours after removal): gradually reduced to normal levels
MMP1 expression versus untreated cells after treatment removal ([3]; 100 μg/ml for 48 hours, then another 24 hours after removal): remained significantly higher
MMP1 expression ([3]; 100 μg/ml, at 48 hours after treatment): marked increase
MMP-1 expression ([3]; 25-150 μg/ml): significantly increased
concentration that could stimulate MMP-1 expression (as little as) ([3]; dermal fibroblasts, data not shown): 12.5 µg/mL
MMP-1 expression ([3]; kynurenine isoforms, 50 μg/ml): increase
collagen content (Massons' trichrome staining) [4, 5]: significant reduction
hydroxyproline content (index for tissue collagen content) [4, 5]: significant lower
average scar elevation index (SEI) ([4]; 50 μg in 0.1 ml CMC gel daily for three weeks, n=8, vehicle 1.978±0.442, untreated 2.098±0.324): 1.172±0.156
scarring versus non-treated or vehicle-only wounds ([4]; 50 μg in 0.1 ml CMC gel daily, after three weeks): significantly less scarring
wound closure versus untreated or CMC gel treated controls ([4]; 50 μg in 0.1 ml CMC gel daily, three weeks from day 8 post-wounding, data not shown): no significant difference
expression of MMP-1 in rabbit ear skin (quantitative RT-PCR) [4, 6]: increased
expression of type-1 α1 collagen in rabbit ear skin (quantitative RT-PCR) [4, 6]: decreased
